The text below walks through data of patent US8680065B2, “Oligonucleotides of human endogenous retrovirus 9 (ERV-9) long terminal repeat (LTR) and methods of use” (The United States of America, as represented by the …, priority 2008, dated 2014).

Data set [1] relates to human primary lymphocytes. As to the kind of experiment: Proliferation of normal human primary cells, 48 hours. The class given is cell-based. As to conditions: 20 μg/ml, P>0.05. As to the method:
FIG. 14 is a graph showing the effect of ERV-9 U3 sense and antisense oligonucleotides (SEQ ID NOs: 1 and 2, respectively) on human primary lymphocytes. Cells (4×10^4) were transfected with ERV-9 U3 sense or antisense oligonucleotide formulated in LIPOFECTAMINE™ at a concentration of 20 μg/ml for 48 hours.
To determine whether the inhibitory effect of ERV-9 U3 oligonucleotides is specific to cancer cells, human primary keratinocytes (FIG. 13), lymphocytes (FIG. 14), or monocytes (FIG. 15) were treated with ERV-9 U3 sense or antisense oligonucleotide and cell proliferation was evaluated. Cells (4×10^4) were transfected with ERV-9 U3 sense or antisense oligonucleotide (SEQ ID NOs: 1 and 2, respectively) formulated in LIPOFECTAMINE™ at a concentration of 20 μg/ml. GFP oligonucleotide was used as non-specific phosphorothioate oligonucleotide control. After 48 hours, cell proliferation was assessed by direct cell counting. Cell proliferation levels were expressed relative to GFP control.

Data set [2] deals with HT1080, MDA-231, K562, LNcaP, HepG2 and MCF-7 cancer cell lines. As to the kind of experiment: Cancer cell proliferation, Example 2, summary over six cancer cell lines, alone or with VP16. The class given is cell-based, human. To be noted: for proliferation relative to GFP control oligonucleotide: each of six cancer cell lines, oligonucleotide 15 μg/ml, 48 hours; for proliferation compared with Bcl-2, telomerase and MDM2-specific antisense oligonucleotides: six cancer cell lines, alone or with VP16, in most instances. As for the experimental part: (§1) To test the effect of treating cancer cells with the combination of ERV-9 U3 oligonucleotide and VP16, six different cancer cell lines were analyzed: HT1080, (FIG. 7); MDA-231 (FIG. 8); K562 (FIG. 9); LNcaP (FIG. 10); HepG2 (FIG. 11); and MCF-7 (FIG. 12). Cells (4×10^4) were treated with 15 μg/ml ERV-9 U3 sense (SEQ ID NO: 1) or antisense (SEQ ID NO: 2) oligonucleotide alone or in combination with VP16 at a concentration of 30 ng/ml or 50 ng/ml. After 48 hours, cell proliferation was assessed by direct cell counting. Cell proliferation levels were expressed relative to GFP oligonucleotide control in the absence of VP16.

In another data set the test system is K562 cells. The data set is described as follows: Cancer cell proliferation, oligonucleotide in combination with VP16, 48 hours. Format: cell-based, human. As to conditions: oligonucleotide 15 μg/ml with VP16 30 ng/ml and 50 ng/ml, P<0.05. As for the experimental part: FIG. 9 is a graph showing proliferation of K562 cells treated with ERV-9 U3 sense or antisense oligonucleotide (SEQ ID NOs: 1 and 2, respectively), in combination with VP16. Cells (4×10^4) were treated with oligonucleotide (15 μg/ml) alone or in combination with the concentrations of VP16 shown for 48 hours.
as §1

The next data set relates to HT1080 tumor xenografts. The data set is described as follows: Growth of human tumor xenografts in SCID mice. The class given is in vivo. As to conditions: HT1080 xenograft; for tumor growth, combination treatment with VP16: 50 μg oligonucleotide and 50 ng VP16 once per day; for tumor burden compared to treatment with G3139: 50 μg oligonucleotide per mouse; for tumor growth (tumor size): 50 μg oligonucleotide per mouse injected around tumor once per day. As to the method:
(§2) FIG. 18A is a pair of graphs showing the effect of sense and antisense ERV-9 U3 oligonucleotides (SEQ ID NOs: 1 and 2, respectively) on growth of MDA-231 (top) and HT1080 (bottom) tumor xenografts in SCID mice. Mice were injected with 50 μg of the indicated oligonucleotides once per day for 14 days (MDA-231) or 7 days (HT1080).
(§3) FIG. 18B is a pair of graphs showing the effect of sense and antisense ERV-9 U3 oligonucleotides (SEQ ID NOs: 1 and 2, respectively) on growth of MDA-231 (top) and HT1080 (bottom) tumor xenografts in SCID mice in combination with VP16. Mice were injected with 50 μg of the indicated oligonucleotides and 50 ng of VP16 once per day for 24 days (MDA-231) or 14 days (HT1080).
(§4) CB-17 prkdc(SCID) male, 4- to 6-week-old SCID mice were purchased from the Jackson Laboratory. Cultured cells (MDA-231 or HT1080 cells) were washed with and resuspended in serum-free media. The suspension (2×10^6 cells in 0.2 ml per mouse) was then injected into the chest area of the mice. The mice were monitored by measuring tumor growth and body weight and by general clinical observation. When tumor size reached approximately 4×4 mm, tumor-bearing mice were randomly divided into multiple treatment and control groups (five mice per group). All oligonucleotides, dissolved in PBS, were injected into the surrounding area of the tumor at doses of 50 μg per mouse (approximately 2.5 mg/kg), one time per day, 5 days/week until the tumor size of the control injected tumors reached about 20×20 mm (2×2 cm). The tumors were dissected from mice and weighed with the investigator blinded as to the treatment group. In combination therapy, 50 μg of the oligonucleotide (approximately 2.5 mg/kg) and 50 ng of VP16 (approximately 2.5 μg/kg), both dissolved in PBS, were injected together (one time per day, 5 days/week) into the surrounding area of the tumor to all groups.

For another data set, the system named is MDA-231 tumor xenografts. The data set is described as follows: Growth of human tumor xenografts in SCID mice. As to conditions: MDA-231 xenograft; for tumor growth, combination treatment with VP16: 50 μg oligonucleotide and 50 ng VP16 once per day; for tumor burden compared to treatment with G3139: 50 μg oligonucleotide per mouse; for tumor growth (tumor size): 50 μg oligonucleotide per mouse injected around tumor once per day. Format: in vivo. As for the experimental part:
as §2, §3, §4

Data set [3] deals with MCF-7 cells (a breast cancer cell line). The data set is described as follows: Cancer cell proliferation, oligonucleotide in LIPOFECTAMINE, 48 hours, direct cell counting. Format: cell-based, human. To be noted: P<0.05; for cell proliferation compared with G3139, GRN163 and MDM2 antisense oligonucleotides: oligonucleotide 30 μg/ml; for cell proliferation relative to GFP oligonucleotide: oligonucleotide 10, 20 or 30 μg/ml. As to the method: FIG. 6 is a graph showing the effect of sense and antisense ERV-9 U3 oligonucleotides (SEQ ID NOs: 1 and 2, respectively) on proliferation of MCF-7 cells (a breast cancer cell line). Cells (4×10^4) were treated with ERV-9 U3 sense or antisense oligonucleotide formulated in LIPOFECTAMINE™ at the concentrations shown for 48 hours.
To test the effect of the sense and antisense ERV-9 U3 oligonucleotides on proliferation of cancer cells, six different cancer cell lines were selected for transfection studies: HT1080, fibrosarcoma cells (FIG. 1); MDA-231, breast cancer cells (FIG. 2); K562, myelogenous leukemia cells (FIG. 3); LNcaP, prostate cancer cells (FIG. 4); HepG2, hepatocellular carcinoma cells (FIG. 5); and MCF-7, breast cancer cells (FIG. 6). Cells (4×10^4) were treated with ERV-9 U3 sense or antisense oligonucleotide formulated in LIPOFECTAMINE™ at an oligonucleotide concentration of 10, 20 or 30 μg/ml for 48 hours. Green fluorescent protein (GFP) sense oligonucleotide ([…]; SEQ ID NO: 3) was used as a control to measure the non-specific cytotoxicity of phosphorothioate-based oligonucleotides. Antisense oligonucleotides specific for Bcl-2 (G3139; TCTCCCAGCGTGCGCCAT; SEQ ID NO: 4), telomerase (GRN163; TAGGGTTAGACAA; SEQ ID NO: 5), and MDM2 ([…]; SEQ ID NO: 6) were also evaluated. […] After 48 hours of oligonucleotide treatment, cell proliferation was assessed by direct cell counting. Cell proliferation levels were expressed relative to cells transfected with 10 μg/ml GFP control oligonucleotide.

For “U3AS: ERV-9 LTR U3 antisense oligonucleotide CTGATTGGTGTGTTTACAAACCTTGAG, phosphorothioate internucleoside linkages at each position (all phosphorothioate, sugars by position and methylation of C not given here) [Oligo U3AS]”, the “cell proliferation relative to control GFP oligonucleotide” value in data set [1] is given as “did not inhibit cell proliferation relative to control GFP oligonucleotide”. For the same substance, in data set [2], the “proliferation relative to GFP control oligonucleotide” value is given as “resulted in a significant decrease in proliferation of each cancer cell line tested, relative to GFP control oligonucleotide”; the “proliferation compared with Bcl-2, telomerase and MDM2-specific antisense oligonucleotides” value is “inhibited proliferation to a greater extent than the Bcl-2, telomerase and MDM2-specific antisense oligonucleotides, either alone or in combination with VP16”. Besides, the “cell proliferation relative to GFP oligonucleotide control” value in the data set on K562 cells is “inhibited cell proliferation better than GFP control and G3139, GRN163 and MDM2 antisense oligonucleotides”. In the data set with HT1080 tumor xenografts, the “tumor growth, combination treatment with VP16” value (shortened to “tumor growth … with VP16”) is “inhibited tumor growth when co-administered with VP16 better than GFP oligonucleotide or G3139 antisense oligonucleotide”; the “tumor burden compared to treatment with G3139” value is “had reduced tumor burden for both MDA-231 and HT1080 tumors, although this did not reach statistical significance”; the “tumor growth (tumor size)” value is “inhibited tumor growth better than GFP oligonucleotide or G3139 antisense oligonucleotides”. Also, in the data set on MDA-231 tumor xenografts, the “tumor growth … with VP16” value is listed as “inhibited tumor growth when co-administered with VP16 better than GFP oligonucleotide or G3139 antisense oligonucleotide”; the “tumor burden compared to treatment with G3139” value is “had reduced tumor burden for both MDA-231 and HT1080 tumors, although this did not reach statistical significance”; the “tumor growth (tumor size)” value was “inhibited tumor growth better than GFP oligonucleotide or G3139 antisense oligonucleotides”. In data set [3], the “cell proliferation compared with G3139, GRN163 and MDM2 antisense oligonucleotides” value is “inhibited proliferation better than G3139, GRN163 and MDM2 antisense oligonucleotides”; the “cell proliferation relative to GFP oligonucleotide” value is given as “inhibited cell proliferation better than GFP control oligonucleotide at all three concentrations”.

For the substance “U3S: ERV-9 LTR U3 sense oligonucleotide CTCAAGGTTTGTAAACACACCAATCAG, phosphorothioate internucleoside linkages at each position (all phosphorothioate, sugars by position and methylation of C not given here) [Oligo U3S]”, the “cell proliferation relative to control GFP oligonucleotide” value in data set [1] was “did not inhibit cell proliferation relative to control GFP oligonucleotide”. For the same substance, in data set [2], the “proliferation relative to GFP control oligonucleotide” value was “resulted in a significant decrease in proliferation of each cancer cell line tested, relative to GFP control oligonucleotide”; the “proliferation compared with Bcl-2, telomerase and MDM2-specific antisense oligonucleotides” value was “inhibited proliferation to a greater extent than the Bcl-2, telomerase and MDM2-specific antisense oligonucleotides, either alone or in combination with VP16”. In the data set with K562 cells, the “cell proliferation relative to GFP oligonucleotide control” value is “inhibited cell proliferation better than GFP control and G3139, GRN163 and MDM2 antisense oligonucleotides”. Further, in the data set with HT1080 tumor xenografts, the “tumor growth … with VP16” value is “inhibited tumor growth when co-administered with VP16 better than GFP oligonucleotide or G3139 antisense oligonucleotide”; the “tumor burden compared to treatment with G3139” value is “had reduced tumor burden for both MDA-231 and HT1080 tumors, although this did not reach statistical significance”; the “tumor growth (tumor size)” value was “inhibited tumor growth better than GFP oligonucleotide or G3139 antisense oligonucleotides”. In the data set on MDA-231 tumor xenografts, the “tumor growth … with VP16” value is recorded as “inhibited tumor growth when co-administered with VP16 better than GFP oligonucleotide or G3139 antisense oligonucleotide”; the “tumor burden compared to treatment with G3139” value was “had reduced tumor burden for both MDA-231 and HT1080 tumors, although this did not reach statistical significance”; the “tumor growth (tumor size)” value is recorded as “inhibited tumor growth better than GFP oligonucleotide or G3139 antisense oligonucleotides”. For the same substance, in data set [3], the “cell proliferation compared with G3139, GRN163 and MDM2 antisense oligonucleotides” value was “inhibited proliferation better than G3139, GRN163 and MDM2 antisense oligonucleotides”; the “cell proliferation relative to GFP oligonucleotide” value was “inhibited cell proliferation better than GFP control oligonucleotide at all three concentrations”.
